Assays:
Type in all cases: in vivo
[1] = test system: velvetleaf (Abutilon theophrasti); test: Test G Post-Emergence Protocol; conditions: Abutilon theophrasti, post-emergence, 312 h; for pest or weed control at 15.625 g/ha: 15.625 g ai/ha, evaluated after 13 days (100=total damage to plant; 0=no damage to plant), read-out: Velvetleaf damage rating; for pest or weed control at 62.5 g/ha: 62.5 g ai/ha, read-out: Velvetleaf damage rating (100=total damage to plant; 0=no damage to plant); for pest or weed control at 62.5 g/ha / pest or weed control at 250 g/ha: evaluated after 13 days; for pest or weed control at 250 g/ha: 250 g ai/ha, read-out: damage to plant, Velvetleaf (100=total damage to plant; 0=no damage to plant)
Procedure, shortened: (§1)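 Seedlings grown 8 days in soil in a glasshouse (24/16 °C day/night, 14 h light, 65% humidity) were sprayed post-emergence with compound in acetone/water 50:50 plus 0.5% Tween 20 at 15.625, 62.5 or 250 g/ha. Damage was scored after 13 days on a 0–100 scale (100 = total damage).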

corn (Zea mays) [2] = test: Test G Post-Emergence Protocol; conditions: Zea mays, post-emergence, 312 h; for plant injury at 15.625 g/ha: 15.625 g ai/ha, evaluated after 13 days (100=total damage to plant; 0=no damage to plant), read-out: Corn damage rating; for plant injury at 62.5 g/ha: 62.5 g ai/ha, read-out: Corn damage rating (100=total damage to plant; 0=no damage to plant); for plant injury at 62.5 g/ha / plant injury at 250 g/ha: evaluated after 13 days; for plant injury at 250 g/ha: 250 g ai/ha, read-out: damage to plant, Corn (100=total damage to plant; 0=no damage to plant)
Procedure, shortened: as §1

[3] = test system: barnyardgrass (Echinochloa crus-galli); test: Test G Post-Emergence Protocol; conditions: Echinochloa crus-galli, post-emergence, 312 h; for pest or weed control at 15.625 g/ha: 15.625 g ai/ha, evaluated after 13 days (100=total damage to plant; 0=no damage to plant), read-out: Barnyardgrass damage rating; for pest or weed control at 62.5 g/ha: 62.5 g ai/ha, read-out: Barnyardgrass damage rating (100=total damage to plant; 0=no damage to plant); for pest or weed control at 62.5 g/ha / pest or weed control at 250 g/ha: evaluated after 13 days; for pest or weed control at 250 g/ha: 250 g ai/ha, read-out: damage to plant, Barnyardgrass (100=total damage to plant; 0=no damage to plant)
Procedure, shortened: as §1

[4] = test system: redroot pigweed (Amaranthus retroflexus); test: Test G Post-Emergence Protocol; conditions: Amaranthus retroflexus, post-emergence, 312 h; for pest or weed control at 15.625 g/ha: 15.625 g ai/ha, evaluated after 13 days (100=total damage to plant; 0=no damage to plant), read-out: Pigweed, Redroot damage rating; for pest or weed control at 62.5 g/ha: 62.5 g ai/ha, read-out: Pigweed, Redroot damage rating (100=total damage to plant; 0=no damage to plant); for pest or weed control at 62.5 g/ha / pest or weed control at 250 g/ha: evaluated after 13 days; for pest or weed control at 250 g/ha: 250 g ai/ha, read-out: damage to plant, Pigweed, Redroot (100=total damage to plant; 0=no damage to plant)
Procedure, shortened: as §1

[5] = test system: giant foxtail (Setaria faberi); test: Test G Post-Emergence Protocol; conditions: Setaria faberi, post-emergence, 312 h; for pest or weed control at 15.625 g/ha: 15.625 g ai/ha, evaluated after 13 days (100=total damage to plant; 0=no damage to plant), read-out: Foxtail, Giant damage rating; for pest or weed control at 62.5 g/ha: 62.5 g ai/ha, read-out: Foxtail, Giant damage rating (100=total damage to plant; 0=no damage to plant); for pest or weed control at 62.5 g/ha / pest or weed control at 250 g/ha: evaluated after 13 days; for pest or weed control at 250 g/ha: 250 g ai/ha, read-out: damage to plant, Foxtail, Giant (100=total damage to plant; 0=no damage to plant)
Procedure, shortened: as §1

[6] = test system: ivy-leaved morning glory (Ipomoea hederacea); test: Test G Post-Emergence Protocol; conditions: Ipomoea, post-emergence, 312 h; for pest or weed control at 15.625 g/ha: 15.625 g ai/ha, evaluated after 13 days (100=total damage to plant; 0=no damage to plant), read-out: Morningglory, Ivy-leaved damage rating; for pest or weed control at 62.5 g/ha: 62.5 g ai/ha, read-out: Morningglory, Ivy-leaved damage rating (100=total damage to plant; 0=no damage to plant); for pest or weed control at 62.5 g/ha / pest or weed control at 250 g/ha: evaluated after 13 days; for pest or weed control at 250 g/ha: 250 g ai/ha, read-out: damage to plant, Morningglory, Ivy-leaved (100=total damage to plant; 0=no damage to plant)
Procedure, shortened: as §1

[7] = test system: velvetleaf (Abutilon theophrasti); test: Test G Pre-Emergence Protocol; conditions: Abutilon theophrasti, pre-emergence, 312 h, evaluated after 13 days; for pest or weed control at 15.625 g/ha: 15.625 g ai/ha; for pest or weed control at 15.625 g/ha / pest or weed control at 250 g/ha: read-out: Velvetleaf damage rating (100=total damage to plant; 0=no damage to plant); for pest or weed control at 62.5 g/ha: 62.5 g ai/ha, 100=total damage to plant, 0=no damage to plant, read-out: plant damage rating, Velvetleaf; for pest or weed control at 250 g/ha: 250 g ai/ha
Procedure, shortened: (§2)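 Test compound in 0.5% Tween 20 acetone/water (50:50) was applied at three rates (15.625, 62.5, 250 g/ha) to soil sown one day earlier. After 13 days plants were scored for injury, where 0 means unaffected and 100 means completely damaged.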

corn (Zea mays) [8] = test: Test G Pre-Emergence Protocol; conditions: Zea mays, pre-emergence, 312 h, evaluated after 13 days; for plant injury at 15.625 g/ha: 15.625 g ai/ha; for plant injury at 15.625 g/ha / plant injury at 250 g/ha: read-out: Corn damage rating (100=total damage to plant; 0=no damage to plant); for plant injury at 62.5 g/ha: 62.5 g ai/ha, 100=total damage to plant, 0=no damage to plant, read-out: plant damage rating, Corn; for plant injury at 250 g/ha: 250 g ai/ha
Procedure, shortened: as §2

[9] = test system: barnyardgrass (Echinochloa crus-galli); test: Test G Pre-Emergence Protocol; conditions: Echinochloa crus-galli, pre-emergence, 312 h, evaluated after 13 days; for pest or weed control at 15.625 g/ha: 15.625 g ai/ha, read-out: Barnyard grass damage rating (100=total damage to plant; 0=no damage to plant); for pest or weed control at 62.5 g/ha: 62.5 g ai/ha, 100=total damage to plant, 0=no damage to plant, read-out: plant damage rating, Barnyardgrass; for pest or weed control at 250 g/ha: 250 g ai/ha, read-out: Barnyardgrass damage rating (100=total damage to plant; 0=no damage to plant)
Procedure, shortened: as §2

[10] = test system: redroot pigweed (Amaranthus retroflexus); test: Test G Pre-Emergence Protocol; conditions: Amaranthus retroflexus, pre-emergence, 312 h, evaluated after 13 days; for pest or weed control at 15.625 g/ha: 15.625 g ai/ha; for pest or weed control at 15.625 g/ha / pest or weed control at 250 g/ha: read-out: Pigweed, Redroot damage rating (100=total damage to plant; 0=no damage to plant); for pest or weed control at 62.5 g/ha: 62.5 g ai/ha, 100=total damage to plant, 0=no damage to plant, read-out: plant damage rating, Pigweed, Redroot; for pest or weed control at 250 g/ha: 250 g ai/ha
Procedure, shortened: as §2

[11] = test system: giant foxtail (Setaria faberi); test: Test G Pre-Emergence Protocol; conditions: Setaria faberi, pre-emergence, 312 h, evaluated after 13 days; for pest or weed control at 15.625 g/ha: 15.625 g ai/ha; for pest or weed control at 15.625 g/ha / pest or weed control at 250 g/ha: read-out: Foxtail, Giant damage rating (100=total damage to plant; 0=no damage to plant); for pest or weed control at 62.5 g/ha: 62.5 g ai/ha, 100=total damage to plant, 0=no damage to plant, read-out: plant damage rating, Foxtail, Giant; for pest or weed control at 250 g/ha: 250 g ai/ha
Procedure, shortened: as §2

[12] = test system: ivy-leaved morning glory (Ipomoea hederacea); test: Test G Pre-Emergence Protocol; conditions: Ipomoea, pre-emergence, 312 h, evaluated after 13 days; for pest or weed control at 15.625 g/ha: 15.625 g ai/ha, read-out: Morning-glory, Ivy-leaved damage rating (100=total damage to plant; 0=no damage to plant); for pest or weed control at 62.5 g/ha: 62.5 g ai/ha, 100=total damage to plant, 0=no damage to plant, read-out: plant damage rating, Morningglory, Ivy-leaved; for pest or weed control at 250 g/ha: 250 g ai/ha, read-out: Morningglory, Ivy-leaved damage rating (100=total damage to plant; 0=no damage to plant)
Procedure, shortened: as §2

Structure (SMILES)	pest or weed control at 15.625 g/ha [1] [%]	pest or weed control at 62.5 g/ha [1] [%]	pest or weed control at 250 g/ha [1] [%]	plant injury at 15.625 g/ha (corn (Zea mays) [2]) [%]	plant injury at 62.5 g/ha (corn (Zea mays) [2]) [%]	plant injury at 250 g/ha (corn (Zea mays) [2]) [%]	pest or weed control at 15.625 g/ha [3] [%]	pest or weed control at 62.5 g/ha [3] [%]	pest or weed control at 250 g/ha [3] [%]	pest or weed control at 15.625 g/ha [4] [%]	pest or weed control at 62.5 g/ha [4] [%]	pest or weed control at 250 g/ha [4] [%]	pest or weed control at 15.625 g/ha [5] [%]	pest or weed control at 62.5 g/ha [5] [%]	pest or weed control at 250 g/ha [5] [%]	pest or weed control at 15.625 g/ha [6] [%]	pest or weed control at 62.5 g/ha [6] [%]	pest or weed control at 250 g/ha [6] [%]	pest or weed control at 15.625 g/ha [7] [%]	pest or weed control at 62.5 g/ha [7] [%]	further results
CN1C[C@@H](c2ccc(C(F)(F)F)cc2)[C@H](C(=O)Nc2sccc2C#N)C1=O (racemic) [Compound 1520]	0	0	10	0	0	20	0	30	60	0	0	10	0	30	70	10	30	40	0	0	pest or weed control at 250 g/ha [7]: 0%; plant injury at 15.625 g/ha (corn (Zea mays) [8]): 0%; plant injury at 62.5 g/ha (corn (Zea mays) [8]): 0%; plant injury at 250 g/ha (corn (Zea mays) [8]): 0%; pest or weed control at 15.625 g/ha [9]: 20%; pest or weed control at 62.5 g/ha [9]: 50%; pest or weed control at 250 g/ha [9]: 90%; pest or weed control at 15.625 g/ha [10]: 0%; pest or weed control at 62.5 g/ha [10]: 0%; pest or weed control at 250 g/ha [10]: 30%; pest or weed control at 15.625 g/ha [11]: 20%; pest or weed control at 62.5 g/ha [11]: 60%; pest or weed control at 250 g/ha [11]: 80%; pest or weed control at 15.625 g/ha [12]: 0%; pest or weed control at 62.5 g/ha [12]: 0%; pest or weed control at 250 g/ha [12]: 0%
CN1C[C@@H](c2ccc(C(F)(F)F)cc2)[C@H](C(=O)Nc2cc(F)ncn2)C1=O (racemic) [Compound 1509]	0	0	0	0	0	0	0	0	0	0	0	0	0	0	0	0	0	0	0	0	pest or weed control at 250 g/ha [7]: 0%; plant injury at 15.625 g/ha (corn (Zea mays) [8]): 0%; plant injury at 62.5 g/ha (corn (Zea mays) [8]): 0%; plant injury at 250 g/ha (corn (Zea mays) [8]): 0%; pest or weed control at 15.625 g/ha [9]: 0%; pest or weed control at 62.5 g/ha [9]: 0%; pest or weed control at 250 g/ha [9]: 0%; pest or weed control at 15.625 g/ha [10]: 0%; pest or weed control at 62.5 g/ha [10]: 0%; pest or weed control at 250 g/ha [10]: 0%; pest or weed control at 15.625 g/ha [11]: 0%; pest or weed control at 62.5 g/ha [11]: 0%; pest or weed control at 250 g/ha [11]: 0%; pest or weed control at 15.625 g/ha [12]: 0%; pest or weed control at 62.5 g/ha [12]: 0%; pest or weed control at 250 g/ha [12]: 0%

Source: patent US12077503B2, “Substituted cyclic amides and their use as herbicides” (FMC CORPORATION, priority 2015, dated 2024)
